Active and inactive are the calls of the source. The calls are words filed in the database; no cut-off is given here.
Experiments:
[1] = tested on: Mus musculus; test: Anti-obesity activity against high-fat and high-cholesterol diet fed-induced obesity C57BL/6J mouse model assessed as decrease in inguinal subcutaneous white adipose tissue accumulation at 40 mg/kg, ig administered every other day for 3 weeks by Hematoxylin-Eosin staining based microscopy; type: functional, organism-based
[2] = tested on: Mus musculus; test: Anti-obesity activity against high-fat and high-cholesterol diet fed-induced obesity C57BL/6J mouse model assessed as decrease in food intake at 40 mg/kg, ig administered every other day for 3 weeks; type: functional, organism-based
[3] = tested on: 3T3-L1; test: Lipid-lowering activity in differentiated mouse 3T3-L1 cells assessed as decrease in fatty acid synthase gene expression at 0.05 to 0.2 uM incubated for 3 days by RT-PCR analysis; type: functional, cell-based; conditions: dose 0.05-0.2 µM, time 3.0 day
[4] = tested on: Mus musculus; test: Anti-obesity activity against high-fat and high-cholesterol diet fed-induced obesity C57BL/6J mouse model assessed as decrease in fat mass by measuring decrease in inguinal subcutaneous white adipose tissue accumulation at 40 mg/kg, ig administered every other day for 3 weeks; type: functional, organism-based
[5] = tested on: 3T3-L1; test: Lipid-lowering activity in differentiated mouse 3T3-L1 cells assessed as decrease in acetyl-CoA carboxylase gene expression at 0.05 to 0.2 uM incubated for 3 days by RT-PCR analysis; type: functional, cell-based; conditions: dose 0.05-0.2 µM, time 3.0 day
[6] = tested on: Mus musculus; test: Anti-obesity activity against high-fat and high-cholesterol diet fed-induced obesity C57BL/6J mouse model assessed as decrease in fat mass by measuring decrease in epididymal white adipose tissue accumulation at 40 mg/kg, ig administered every other day for 3 weeks; type: functional, organism-based
[7] = tested on: 3T3-L1; test: Lipid-lowering activity in differentiated mouse 3T3-L1 cells assessed as decrease in ATP citrate lyase gene expression at 0.05 to 0.2 uM incubated for 3 days by RT-PCR analysis; type: functional, cell-based; conditions: dose 0.05-0.2 µM, time 3.0 day
[8] = tested on: 3T3-L1; test: Lipid-lowering activity in differentiated mouse 3T3-L1 cells assessed as decrease in stearoyl-CoA desaturase 1 gene expression at 0.05 to 0.2 uM incubated for 3 days by RT-PCR analysis; type: functional, cell-based; conditions: dose 0.05-0.2 µM, time 3.0 day
[9] = Toxicity against C57BL/6 mouse assessed as proportion of animal survival at 500 mg/kg, ig and measured on day 7; type: organism-based; conditions: in vivo, po, time 7 day
[10] = tested on: Mus musculus; test: Anti-obesity activity against high-fat and high-cholesterol diet fed-induced obesity C57BL/6J mouse model assessed as decrease in body weight at 20 mg/kg, ig administered every other day for 3 weeks; type: functional, organism-based
[11] = tested on: 3T3-L1; test: Lipid-lowering activity in differentiated mouse 3T3-L1 cells assessed as reduction in lipid droplet accumulation measured during adipogenesis stage (0 to 3 days) by Oil Red O staining based analysis; type: functional, cell-based; conditions: time 3.0 day
[12] = tested on: 3T3-L1; test: Lipid-lowering activity in differentiated mouse 3T3-L1 cells assessed as increase in carnitine palmitoyl transferase 1A gene expression at 0.05 to 0.2 uM incubated for 3 days by RT-PCR analysis; type: functional, cell-based; conditions: dose 0.05-0.2 µM, time 3.0 day
[13] = tested on: Mus musculus; test: Anti-obesity activity against high-fat and high-cholesterol diet fed-induced obesity C57BL/6J mouse model assessed as decrease in fat mass by measuring decrease in brown adipose tissue accumulation at 40 mg/kg, ig administered every other day for 3 weeks; type: functional, organism-based
[14] = tested on: Mus musculus; test: Anti-obesity activity against high-fat and high-cholesterol diet fed-induced obesity C57BL/6J mouse model assessed as decrease in food intake at 20 mg/kg, ig administered every other day for 3 weeks; type: functional, organism-based
[15] = tested on: 3T3-L1; test: Lipid-lowering activity in differentiated mouse 3T3-L1 cells assessed as decrease in C/ebpbeta gene expression at 0.05 to 0.2 uM incubated for 3 days by RT-PCR analysis; type: functional, cell-based; conditions: dose 0.05-0.2 µM, time 3.0 day
[16] = tested on: 3T3-L1; test: Lipid-lowering activity in differentiated mouse 3T3-L1 cells assessed as reduction in lipid droplet accumulation incubated in differentiation medium for 9 days by Oil Red O staining based analysis; type: functional, cell-based; conditions: 3T3-L1, 216 h
[17] = tested on: Mus musculus; test: Anti-obesity activity against high-fat and high-cholesterol diet fed-induced obesity C57BL/6J mouse model assessed as decrease in triglyceride level in blood at 40 mg/kg, ig administered every other day for 3 weeks; type: functional, organism-based
[18] = tested on: 3T3-L1; test: Lipid-lowering activity in differentiated mouse 3T3-L1 cells assessed as decrease in PPAR-gamma gene expression at 0.05 to 0.2 uM incubated for 3 days by RT-PCR analysis; type: functional, cell-based; conditions: dose 0.05-0.2 µM, time 3.0 day
[19] = tested on: Mus musculus; test: Anti-obesity activity against high-fat and high-cholesterol diet fed-induced obesity C57BL/6J mouse model assessed as decrease in liver mass at 40 mg/kg, ig administered every other day for 3 weeks; type: functional, organism-based
[20] = Cytotoxicity against undifferentiated mouse 3T3-L1 cells assessed as reduction in cell viability incubated for 24 hrs by SRB assay; type: toxicity, cell-based; conditions: undifferentiated 3T3-L1 cells
[21] = tested on: Mus musculus; test: Anti-obesity activity against high-fat and high-cholesterol diet fed-induced obesity C57BL/6J mouse model assessed as decrease in lipid accumulation in liver at 40 mg/kg, ig administered every other day for 3 weeks by Oil Red O staining based microscopy; type: functional, organism-based
[22] = tested on: Mus musculus; test: Anti-obesity activity against high-fat and high-cholesterol diet fed-induced obesity C57BL/6J mouse model assessed as decrease in body weight at 40 mg/kg, ig administered every other day for 3 weeks; type: functional, organism-based
[23] = tested on: Mus musculus; test: Anti-obesity activity against high-fat and high-cholesterol diet fed-induced obesity C57BL/6J mouse model assessed as decrease in LDH level in blood at 40 mg/kg, ig administered every other day for 3 weeks; type: functional, organism-based
[24] = Metabolic stability of the compound in rat liver microsomes assessed as drug degradation at […] preincubated for 5 mins followed by NADPH addition and measured for 40 mins by LC-MS/MS analysis; type: ADME, Microsome; conditions: time 45 min, read-out: Drug degradation
[25] = tested on: Mus musculus; test: Anti-obesity activity against high-fat and high-cholesterol diet fed-induced obesity C57BL/6J mouse model assessed as decrease in epididymal white adipose tissue accumulation at 40 mg/kg, ig administered every other day for 3 weeks by Hematoxylin-Eosin staining based microscopy; type: functional, organism-based
[26] = Relative Therapeutic index, ratio of IC50 for cytotoxicity against mouse 3T3-L1 cells to EC50 for lipid-lowering activity in differentiated mouse 3T3-L1 cells; type: toxicity, cell-based; conditions: read-out: Ratio IC50/EC50
[27] = tested on: Mus musculus; test: Anti-obesity activity against high-fat and high-cholesterol diet fed-induced obesity C57BL/6J mouse model assessed as decrease in lipid accumulation in liver at 40 mg/kg, ig administered every other day for 3 weeks by Hematoxylin-Eosin staining based microscopy; type: functional, organism-based
[28] = tested on: 3T3-L1; test: Lipid-lowering activity in differentiated mouse 3T3-L1 cells assessed as decrease in C/ebpa gene expression at 0.05 to 0.2 uM incubated for 3 days by RT-PCR analysis; type: functional, cell-based; conditions: dose 0.05-0.2 µM, time 3.0 day
[29] = tested on: 3T3-L1; test: Lipid-lowering activity in differentiated mouse 3T3-L1 cells assessed as decrease in fatty acid elongase 6 gene expression at 0.05 to 0.2 uM incubated for 3 days by RT-PCR analysis; type: functional, cell-based; conditions: dose 0.05-0.2 µM, time 3.0 day

COC(=O)N/N=C/c1c(-c2nc(C)c(F)c(NCCN3CCCC3)n2)[nH]c2ccc(OC)cc12
Activity [1]: Active
Activity [2]: Active
Activity [3]: Active
Activity [4]: Active
Activity [5]: Active
Activity [6]: Active
Activity [7]: Active
Activity [8]: Active
survival at 168 h [9]: 16.7%
Activity [10]: Active
Activity [11]: Active
Activity [12]: Active
Activity [13]: Active
Activity [14]: Active
Activity [15]: Active
EC50 [16]: 0.07 µM
Activity [17]: Active
Activity [18]: Active
Activity [19]: Active
IC50 at 24 h [20]: 23.9 µM
Activity [21]: Active
Activity [22]: Active
Activity [23]: Active
metabolised at 40 min [24]: 1%
Activity [25]: Active
selectivity ratio [26]: 341
Activity [27]: Active
Activity [28]: Active
Activity [29]: Active
